The test has as its target T1, Leukotriene A-4 hydrolase (Homo sapiens, UniProt P09960).
T1 sequence (P09960 whole entry): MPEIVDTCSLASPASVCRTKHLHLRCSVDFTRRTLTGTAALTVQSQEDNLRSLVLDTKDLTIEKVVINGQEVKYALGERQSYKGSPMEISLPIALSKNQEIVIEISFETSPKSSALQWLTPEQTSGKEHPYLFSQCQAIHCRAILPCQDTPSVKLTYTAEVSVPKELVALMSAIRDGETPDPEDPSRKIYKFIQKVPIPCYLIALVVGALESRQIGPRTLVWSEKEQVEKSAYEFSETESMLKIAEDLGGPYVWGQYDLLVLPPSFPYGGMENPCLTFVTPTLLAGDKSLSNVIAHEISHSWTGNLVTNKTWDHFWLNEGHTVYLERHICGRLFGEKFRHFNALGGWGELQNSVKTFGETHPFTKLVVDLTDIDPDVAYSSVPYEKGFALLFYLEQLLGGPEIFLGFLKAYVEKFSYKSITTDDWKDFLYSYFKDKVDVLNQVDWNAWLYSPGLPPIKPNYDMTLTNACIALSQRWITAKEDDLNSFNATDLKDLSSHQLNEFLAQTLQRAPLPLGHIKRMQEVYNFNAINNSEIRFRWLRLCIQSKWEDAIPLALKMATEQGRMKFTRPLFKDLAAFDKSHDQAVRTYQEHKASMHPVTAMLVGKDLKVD
Kind of test: Homogenous Time Resolved Fluorescence Assay. An excerpt: The hydrolase-homogeneous time resolved fluorescence assay is a two-step assay that measures the hydrolysis of LTA4 to LTB4 by analyzing the amount of LTB4 produced. The first step involves the enzymatic conversion of LTA4 to LTB4 and the second step involves the quantification of the LTB4 formed with a homogeneous time resolved fluorescence assay.

The values that follow come from BindingDB's records for patent US20240398793 (Celltaxis, 2024).

pIC50: −log10 of the molar value.

As for `COc1cc(O)cc(CCc2cccc(O)c2)c1` [Batatasin III (4)], the negative-log IC50 (pIC50) (as a rule, the IC50 on a negative log10 scale, so that one unit is a factor of ten) was 5.77.
For `CC(=O)Oc1ccc(/C=C/c2cc(OC(C)=O)cc(OC(C)=O)c2)cc1` [US20240398793, Compound 4] the value was 4.41; for `COc1cc(O)cc(/C=C/c2ccc(O)cc2)c1` [US20240398793, Compound 5], 5.41.
Take `COc1cc(O)cc(CCc2ccc(O)cc2)c1` [US20240398793, Compound 6]: the negative-log IC50 (pIC50) was 5.19. Against the preceding compound, the pIC50 is 0.22 log units lower.
For `CCOc1cc(O)cc(CCc2ccc(O)cc2)c1` [US20240398793, Compound 7] the value was 5.49.
For `COc1cc(O)cc(CCc2ccccc2O)c1` [US20240398793, Compound 9] the value was 6.30; for `O=C(Cc1ccc(O)cc1)c1ccc(O)cc1O` [US20240398793, Compound 10], 4.47.
For `O=c1c(-c2ccc(O)cc2)coc2cc(O)ccc12` [US20240398793, Compound 11] the value was 4.82.
Compound `O=c1c(-c2ccccc2)coc2cc(O)ccc12` [US20240398793, Compound 13] showed a pIC50 of 4.32.
For `Cc1ccc2c(=O)c(-c3ccc(O)cc3)coc2c1O` [US20240398793, Compound 15] the value was 5.92.
